This is an account of results in paper PMC5630020 (Genes & Development, 2017).

As a reminder, the Kd is the free concentration of one partner at which half of the binding sites on the other are occupied at equilibrium, for simple one-to-one binding.

The target in assay [1] is T1, MglA–SspA complex (heterodimer) (Francisella tularensis, UniProt Q5NFG1+Q5NHJ6).
For assay [2], the target named is T1, MglA–SspA complex (heterodimer). The assay can be described thus: biochemical.

T1 sequence (Q5NFG1 1-205): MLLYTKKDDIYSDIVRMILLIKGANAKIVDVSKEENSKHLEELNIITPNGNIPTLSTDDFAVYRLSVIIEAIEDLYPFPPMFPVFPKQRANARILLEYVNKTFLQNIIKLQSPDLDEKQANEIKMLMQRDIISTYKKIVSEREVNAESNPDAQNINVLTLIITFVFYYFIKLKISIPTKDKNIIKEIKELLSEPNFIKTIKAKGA
T1 sequence (Q5NHJ6 1-210): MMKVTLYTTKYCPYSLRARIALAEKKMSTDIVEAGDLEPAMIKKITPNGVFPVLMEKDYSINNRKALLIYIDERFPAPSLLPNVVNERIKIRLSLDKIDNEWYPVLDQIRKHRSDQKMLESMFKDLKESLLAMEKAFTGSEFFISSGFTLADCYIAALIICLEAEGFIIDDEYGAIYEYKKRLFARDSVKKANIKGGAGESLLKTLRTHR

Take `Nc1nc2c(ncn2[C@@H]2O[C@H](COP(=O)(O)OP(=O)(O)OP(=O)(O)O)[C@@H](O)[C@H]2O)c(=O)[nH]1` [GTP]: the “DRaCALA competition against 32P-ppGpp” value in assay [1] was “GTP competed weakly, and ATP, CTP, and UTP showed no detectable competition”. In assay [2], `Nc1nc2c(ncn2[C@@H]2O[C@H](COP(=O)(O)OP(=O)(O)O)[C@@H](OP(=O)(O)OP(=O)(O)O)[C@H]2O)c(=O)[nH]1` [ppGpp] had a Kd of around 12 µM.
